In ChEMBL document CHEMBL1201862, “PubChem BioAssay data set” (2004):
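All cell lines were grown in 96-well plates and treated with compound for 48 hours. Here, GI50 denotes the concentration required for 50% inhibition of growth.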 Calls of active or inactive are those of the source. Rule as the data show it: active = GI50 up to about 1.1 µM and inactive = higher.

What was measured:
Assay in all cases: NCI-60 cell line screen, 48 h
[1] = tested on: 786-0
[2] = tested on: A549
[3] = tested on: ACHN
[4] = tested on: CAKI-1
[5] = tested on: EKVX
[6] = tested on: HCT-116
[7] = tested on: HT-29
[8] = tested on: IGROV-1
[9] = tested on: KM-20L2
[10] = tested on: NCI-H226
[11] = tested on: SNB-75
[12] = tested on: SR
[13] = tested on: SW-620
[14] = tested on: TK-10
[15] = tested on: OVCAR-5
[16] = tested on: OVCAR-8
[17] = tested on: SNB-19
[18] = tested on: RXF 393
[19] = tested on: MDA-MB-231
[20] = tested on: T47D

| Compound | GI50 [1] | GI50 [2] | GI50 [3] | GI50 [4] | GI50 [5] | GI50 [6] | GI50 [7] | GI50 [8] | GI50 [9] | GI50 [10] | GI50 [11] | GI50 [12] | GI50 [13] | GI50 [14] | GI50 [15] | GI50 [16] | GI50 [17] | GI50 [18] | GI50 [19] | GI50 [20] |
| --- | --- | --- | --- | --- | --- | --- | --- | --- | --- | --- | --- | --- | --- | --- | --- | --- | --- | --- | --- | --- |
| COc1ccc(/C(C#N)=C2/O/C(=N/N)C(c3ccc(OC)c(OC)c3)C2=O)cc1OC (stereo not given) | > 100 µM (inactive) | > 100 µM (inactive) | > 100 µM (inactive) | > 100 µM (inactive) | > 100 µM (inactive) | > 100 µM (inactive) | > 100 µM (inactive) | > 100 µM (inactive) | > 100 µM (inactive) | > 100 µM (inactive) | > 100 µM (inactive) | > 100 µM (inactive) | > 100 µM (inactive) | > 100 µM (inactive) | – | – | – | – | – | – |
| Cc1cn2cc(-c3ccncc3)nc2s1 | > 100 µM (inactive) | > 100 µM (inactive) | > 100 µM (inactive) | > 100 µM (inactive) | > 100 µM (inactive) | > 83 µM (inactive) | > 100 µM (inactive) | > 100 µM (inactive) | > 100 µM (inactive) | > 100 µM (inactive) | > 100 µM (inactive) | – | > 50 µM (inactive) | > 100 µM (inactive) | > 100 µM (inactive) | > 100 µM (inactive) | > 100 µM (inactive) | – | – | – |
| O=C1CCC2(c3ccccc3)Nc3ccc(Cl)cc3N12 (stereo not given) | > 100 µM (inactive) | > 100 µM (inactive) | > 100 µM (inactive) | > 100 µM (inactive) | > 100 µM (inactive) | – | > 100 µM (inactive) | > 100 µM (inactive) | > 100 µM (inactive) | > 100 µM (inactive) | 37.7 µM (inactive) | – | > 100 µM (inactive) | > 100 µM (inactive) | > 100 µM (inactive) | > 100 µM (inactive) | – | > 100 µM (inactive) | – | – |
| COC(=O)C(Cc1cc(OC)c(OC)c(OC)c1)C(=O)OC | > 320 µM (inactive) | > 320 µM (inactive) | > 320 µM (inactive) | > 320 µM (inactive) | > 320 µM (inactive) | – | > 320 µM (inactive) | > 320 µM (inactive) | > 320 µM (inactive) | – | – | > 320 µM (inactive) | > 320 µM (inactive) | > 320 µM (inactive) | > 320 µM (inactive) | > 320 µM (inactive) | – | > 320 µM (inactive) | – | – |
| C=C(C)C(=O)OC1CCC2(C)C(CCC3C2CCC2(C)C(c4ccc(=O)oc4)CC4OC432)C1 (stereo not given) | – | 2.31 µM (inactive) | – | 4.07 µM (inactive) | 2.42 µM (inactive) | 2.75 µM (inactive) | 7.94 µM (inactive) | 6.75 µM (inactive) | 6.92 µM (inactive) | 9.42 µM (inactive) | 7.38 µM (inactive) | – | 6.34 µM (inactive) | – | 30.4 µM (inactive) | 5.51 µM (inactive) | 18.5 µM (inactive) | 2.78 µM (inactive) | – | – |
| COC(=O)c1cc(Cl)ccc1NC(=O)c1ccc([N+](=O)[O-])cc1 | 14.6 µM (inactive) | 19.6 µM (inactive) | 5.97 µM (inactive) | 15.3 µM (inactive) | 31.8 µM (inactive) | 4.78 µM (inactive) | 14.8 µM (inactive) | 19.8 µM (inactive) | 21.3 µM (inactive) | 20.3 µM (inactive) | 6.73 µM (inactive) | – | 29.9 µM (inactive) | 16.9 µM (inactive) | > 100 µM (inactive) | 15.9 µM (inactive) | – | 21.4 µM (inactive) | – | – |
| COc1cccc(NC(=O)/C(CC(=O)CC(c2ccccc2)c2c(O)c3ccccc3oc2=O)=N\NC(C)(C)C)c1OC (stereo not given) | > 100 µM (inactive) | 87.7 µM (inactive) | 34.4 µM (inactive) | 36.1 µM (inactive) | 43.4 µM (inactive) | 69 µM (inactive) | – | 64.3 µM (inactive) | 51.4 µM (inactive) | – | 27.7 µM (inactive) | – | > 100 µM (inactive) | > 100 µM (inactive) | > 100 µM (inactive) | > 100 µM (inactive) | > 100 µM (inactive) | – | – | – |
| O=C(N/C(=C\c1ccc(/C=C(\NC(=O)c2ccccc2)c2nc3cc([N+](=O)[O-])ccc3[nH]2)cc1)c1nc2cc([N+](=O)[O-])ccc2[nH]1)c1ccccc1 | 42.4 µM (inactive) | 31 µM (inactive) | 23.2 µM (inactive) | > 100 µM (inactive) | 32.9 µM (inactive) | 28.1 µM (inactive) | 30.3 µM (inactive) | 82.8 µM (inactive) | 37.8 µM (inactive) | – | 68.5 µM (inactive) | – | 55.7 µM (inactive) | 32.1 µM (inactive) | > 100 µM (inactive) | 34.9 µM (inactive) | > 100 µM (inactive) | 24 µM (inactive) | – | – |
| C/C(=N/NC(N)=S)c1ccc2ccccc2c1 | – | 24.4 µM (inactive) | 55.6 µM (inactive) | – | 0.443 µM (active) | 23.8 µM (inactive) | 19.7 µM (inactive) | 32.7 µM (inactive) | 23.7 µM (inactive) | 39.8 µM (inactive) | 25.9 µM (inactive) | 74.5 µM (inactive) | 33.3 µM (inactive) | 74.6 µM (inactive) | 24 µM (inactive) | 32.9 µM (inactive) | 83.2 µM (inactive) | 35.3 µM (inactive) | – | – |
| O=C(Cc1nc2ccc([N+](=O)[O-])cc2nc1O)C(=O)Nc1ccccc1[N+](=O)[O-] | > 100 µM (inactive) | > 100 µM (inactive) | > 100 µM (inactive) | > 100 µM (inactive) | > 100 µM (inactive) | 95.7 µM (inactive) | > 100 µM (inactive) | > 100 µM (inactive) | 87.3 µM (inactive) | > 100 µM (inactive) | > 100 µM (inactive) | – | > 100 µM (inactive) | > 100 µM (inactive) | > 100 µM (inactive) | – | > 100 µM (inactive) | > 100 µM (inactive) | – | – |
| c1ccc2c(c1)nnn1c3cnccc3nc21 | 32.4 µM (inactive) | 30.9 µM (inactive) | 30.2 µM (inactive) | 28.6 µM (inactive) | 51.6 µM (inactive) | 27.6 µM (inactive) | 28.2 µM (inactive) | 36.4 µM (inactive) | 53.1 µM (inactive) | – | 25.4 µM (inactive) | – | 32.4 µM (inactive) | 35.2 µM (inactive) | 63.8 µM (inactive) | 30 µM (inactive) | 47.6 µM (inactive) | 24.7 µM (inactive) | – | – |
| Cc1ccc(NC(=O)CSc2nnc(Cc3ccccc3)o2)c(C)c1 | > 100 µM (inactive) | > 100 µM (inactive) | > 100 µM (inactive) | – | > 100 µM (inactive) | > 100 µM (inactive) | > 100 µM (inactive) | – | > 100 µM (inactive) | > 100 µM (inactive) | > 100 µM (inactive) | > 100 µM (inactive) | > 100 µM (inactive) | > 100 µM (inactive) | – | > 100 µM (inactive) | > 100 µM (inactive) | > 100 µM (inactive) | – | – |
| CC1OC(OC2C(OC(=O)[C@]34CCC(C)(C)C[C@H]3C3=CC[C@@H]5[C@@]6(C)CC[C@H](OC7OC(CO)C(O)C(O)C7OC7OC(CO)C(O)C(O)C7O)C(C)(C)[C@@H]6CC[C@@]5(C)[C@]3(C)CC4)OCC(O)C2O)C(O)C(O)C1OC1OCC(O)C(O)C1O (stereo not given in full) | 8.3 µM (inactive) | 6.37 µM (inactive) | 11.9 µM (inactive) | 5.01 µM (inactive) | 5 µM (inactive) | 11 µM (inactive) | 7.03 µM (inactive) | 16 µM (inactive) | – | 10.8 µM (inactive) | 16.7 µM (inactive) | 7.93 µM (inactive) | 16.1 µM (inactive) | 8.51 µM (inactive) | 7.98 µM (inactive) | 16.5 µM (inactive) | 14.5 µM (inactive) | 9.48 µM (inactive) | 7.83 µM (inactive) | 15.4 µM (inactive) |
| CC(=O)OC1CCC2(C)C(=CCC3C4CCC5(OC6CC(C)CN(C(C)=O)C6C5C)C(C)=C4C(=O)C32)C1 (stereo not given) | 28.1 µM (inactive) | 14.3 µM (inactive) | 25.5 µM (inactive) | 19.6 µM (inactive) | 7.96 µM (inactive) | 18.9 µM (inactive) | 19.9 µM (inactive) | 14.4 µM (inactive) | – | 22.2 µM (inactive) | 19 µM (inactive) | 16 µM (inactive) | 66.8 µM (inactive) | 24.3 µM (inactive) | 19.2 µM (inactive) | 18.5 µM (inactive) | 13.7 µM (inactive) | 16.6 µM (inactive) | 17.2 µM (inactive) | 7.76 µM (inactive) |
| COC(OC)C1OC(CO)C(n2cc(C)c(=O)[nH]c2=O)C1O (stereo not given) | > 100 µM (inactive) | > 100 µM (inactive) | > 100 µM (inactive) | > 100 µM (inactive) | > 100 µM (inactive) | > 100 µM (inactive) | > 100 µM (inactive) | > 100 µM (inactive) | – | > 100 µM (inactive) | > 100 µM (inactive) | > 100 µM (inactive) | > 100 µM (inactive) | > 100 µM (inactive) | > 100 µM (inactive) | > 100 µM (inactive) | > 100 µM (inactive) | 61.7 µM (inactive) | > 100 µM (inactive) | > 100 µM (inactive) |
| CCc1cccc(C(C)C)c1N1C(=O)C(=O)C(c2nc3ccccc3s2)C(=O)C1=O | > 50 µM (inactive) | > 50 µM (inactive) | > 50 µM (inactive) | > 50 µM (inactive) | > 50 µM (inactive) | 20 µM (inactive) | > 30.6 µM (inactive) | > 50 µM (inactive) | 48.4 µM (inactive) | – | > 50 µM (inactive) | – | 32.7 µM (inactive) | > 50 µM (inactive) | > 50 µM (inactive) | > 35.2 µM (inactive) | > 50 µM (inactive) | > 50 µM (inactive) | – | – |
